The source of these data is patent publication US6994862B2, “Formulation solubilizing water-insoluble agents and preparation method thereof” (Korea Institute of Science and Technology, priority 2000, dated 2006).

This data set can be described thus: Release experiment of a pharmaceutical compound (dialysis bag, PBS pH 7.4, 37° C.). The class given is physicochemical. The settings on record: within 5 hr; dialysis bag in PBS pH 7.4, 37° C. How it is done:
Dispersion was prepared by mixing 250 μL of the above liquid formulation with 1.75 mL of distilled water and shaken manually. The mixture was then added into a dialysis bag (MWCO=3,500, Spectra/Por^R, Spectrum Medical Industries, Inc., USA), both ends were tied with a closure, and placed into a 50 ml conical tube containing 10 ml of phosphate buffered saline (PBS, pH=7.4). The conical tube was placed in a 37° C. shaking water bath for the release experiment. The PBS solution located outside the dialysis tube was collected at regular intervals to analyze concentration of the pharmaceutical compound released from the dialysis bag by using Fluorescence spectroscopy (λex=370 nm, λem=480 nm). An aqueous solution where 0.7 mg of rifampicin was dissolved in 2 mL of distilled water was used as a control.
Release experiment was performed using the liquid formulation manufactured the same as in the experimental Example 1 with the exception that 0.7 mg of bromocresol green was used in place of rifampicin. The released drug was collected from the PBS solution and subsequently analyzed for its absorbance at 617 nm. An aqueous solution, where 0.7 mg of bromocresol green was dissolved in 2 mL of distilled water, was used as a control.

On to `Cc1c(C2(c3cc(Br)c(O)c(Br)c3C)OS(=O)(=O)c3ccccc32)cc(Br)c(O)c1Br` [bromocresol green], for which the drug released entry is listed as “more than 80%”.
